pIC50: −log10 of the molar value. Activity calls are given as the source filed them. The rule behind the calls is not given here.
Tests used:
[1] = Cmax in Sprague-Dawley rat at 43 mg/kg, po; format: ADME, organism-based; parameters: dose 43 mg/kg, route oral; conditions: in vivo
[2] = Cmax in BALB/c mouse at 40 mg/kg, po; format: ADME, organism-based; parameters: dose 40 mg/kg, route oral; conditions: in vivo
[3] = target: Mitogen-activated protein kinase 11 (Homo sapiens) (UniProt Q15759); conditions: 2 uM
Description: Inhibition of p38beta at 2 uM

[4] = Inhibition of Gsk3 by filter binding assay
[5] = Inhibition of PKA by filter binding assay
[6] = target: Cyclin-dependent kinase 1 (Homo sapiens) (UniProt P06493); conditions: 2 uM
Description: Inhibition of CDK1 at 2 uM

PBMC = experiment: Antiproliferative activity against PHA-stimulated human PBMC assessed as inhibition of cell proliferation after 72 hrs by thymidine incorporation assay; format: cell-based
[7] = target: Tyrosine-protein kinase Blk (Homo sapiens) (UniProt P51451); conditions: 2 uM
Description: Inhibition of Blk at 2 uM

[8] = Half life in BALB/c mouse at 40 mg/kg, po; format: ADME, organism-based; parameters: dose 40 mg/kg, route oral; conditions: in vivo
[9] = target: MAP kinase-activated protein kinase 5 (Homo sapiens) (UniProt Q8IW41); experiment: Inhibition of PRAK at 2 uM
Canis familiaris = experiment: AUC in beagle dog at 33 mg/kg, po; format: ADME, organism-based, Canis lupus familiaris, Plasma; parameters: dose 33 mg/kg, route oral; conditions: in vivo
Mus musculus [10] = experiment: Antiarthritic activity in complete Freund's adjuvant-immunized DBA/1J mouse assessed as inhibition of type 2 collagen-induced paw inflammation at 10 mg/kg, po bid measured on day 20; format: functional; conditions: 480 h
Cytochrome P450 3A4 = Cytochrome P450 3A4 (Homo sapiens, UniProt P08684); experiment: Inhibition of human CYP3A4; format: ADME
Mus musculus [11] = experiment: Antiarthritic activity in complete Freund's adjuvant-immunized DBA/1J mouse assessed as inhibition of type 2 collagen-induced bone and cartilage erosion at […], po bid measured on day 20; format: functional; conditions: 480 h, dose 2.5 mg/kg
[12] = target: Epidermal growth factor receptor (Homo sapiens) (UniProt P00533); conditions: 2 uM
Description: Inhibition of EGFR at 2 uM

[13] = target: Mitogen-activated protein kinase 10 (Homo sapiens) (UniProt P53779); experiment: Inhibition of JNK3 using KRELVEPLTPSGEAPNQALLR as substrate at 100 uM by spectrophotometric enzyme-coupled assay
[14] = Volume of distribution at steady state in BALB/c mouse at 2 mg/kg, iv; format: ADME, organism-based; parameters: dose 2 mg/kg, route intravenous; conditions: in vivo, read-out: Vdss
[15] = Volume of distribution at steady state in Sprague-Dawley rat at 4.8 mg/kg, iv; format: ADME, organism-based; parameters: dose 4.8 mg/kg, route intravenous; conditions: in vivo, read-out: Vdss
[16] = target: Tyrosine-protein kinase Fyn (Homo sapiens) (UniProt P06241); experiment: Inhibition of Fyn at 2 uM
[17] = target: RAF proto-oncogene serine/threonine-protein kinase (Homo sapiens) (UniProt P04049); conditions: 2 uM
Description: Inhibition of RAFc at 2 uM

[18] = target: Ephrin type-B receptor 4 (Homo sapiens) (UniProt P54760); conditions: 2 uM
Description: Inhibition of EphB4 at 2 uM

[19] = target: Serine/threonine-protein kinase PAK 2 (Homo sapiens) (UniProt Q13177); conditions: 2 uM
Description: Inhibition of PAK2 at 2 uM

[20] = target: Dual specificity mitogen-activated protein kinase kinase 6 (Homo sapiens) (UniProt P52564); experiment: Inhibition of MKK6 at 2 uM
[21] = target: Ribosomal protein S6 kinase alpha-5 (Homo sapiens) (UniProt O75582); conditions: 2 uM
Description: Inhibition of MSK1 at 2 uM

[22] = target: Rho-associated protein kinase 2 (Homo sapiens) (UniProt O75116); experiment: Inhibition of ROCK2 at 2 uM
Mus musculus [23] = experiment: Antiarthritic activity in complete Freund's adjuvant-immunized DBA/1J mouse assessed as inhibition of type 2 collagen-induced bone and cartilage erosion at 10 mg/kg, po bid measured on day 20; format: functional; conditions: 480 h
Cytochrome P450 2D6 = Cytochrome P450 2D6 (Homo sapiens, UniProt P10635); experiment: Inhibition of human CYP2D6; format: ADME

Sequence of Mitogen-activated protein kinase 11 (Homo sapiens) (Q15759 whole entry): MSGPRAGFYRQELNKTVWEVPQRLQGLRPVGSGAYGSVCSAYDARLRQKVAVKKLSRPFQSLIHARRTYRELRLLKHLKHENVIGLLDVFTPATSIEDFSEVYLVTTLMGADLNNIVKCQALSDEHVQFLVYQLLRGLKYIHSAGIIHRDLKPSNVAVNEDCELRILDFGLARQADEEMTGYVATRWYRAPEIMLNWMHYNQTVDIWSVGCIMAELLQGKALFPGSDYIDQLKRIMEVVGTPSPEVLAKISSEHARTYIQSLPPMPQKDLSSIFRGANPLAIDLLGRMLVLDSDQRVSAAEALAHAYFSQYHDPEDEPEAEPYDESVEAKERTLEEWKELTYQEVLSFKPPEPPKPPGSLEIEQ
Sequence of MAP kinase-activated protein kinase 5 (Homo sapiens) (Q8IW41 whole entry): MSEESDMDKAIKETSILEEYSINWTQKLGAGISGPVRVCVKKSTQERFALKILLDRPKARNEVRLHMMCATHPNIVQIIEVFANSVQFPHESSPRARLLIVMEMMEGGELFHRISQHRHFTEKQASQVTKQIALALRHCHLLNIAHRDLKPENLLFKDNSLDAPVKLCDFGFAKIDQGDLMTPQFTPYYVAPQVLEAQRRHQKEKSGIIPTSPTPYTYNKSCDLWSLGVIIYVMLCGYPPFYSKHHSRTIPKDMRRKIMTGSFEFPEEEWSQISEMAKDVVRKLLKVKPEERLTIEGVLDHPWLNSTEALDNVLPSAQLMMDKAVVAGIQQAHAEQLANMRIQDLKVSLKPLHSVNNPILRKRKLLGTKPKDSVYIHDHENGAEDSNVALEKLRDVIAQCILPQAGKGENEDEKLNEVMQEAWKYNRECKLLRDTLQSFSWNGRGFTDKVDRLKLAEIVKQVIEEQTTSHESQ
Sequence of RAF proto-oncogene serine/threonine-protein kinase (Homo sapiens) (P04049 whole entry): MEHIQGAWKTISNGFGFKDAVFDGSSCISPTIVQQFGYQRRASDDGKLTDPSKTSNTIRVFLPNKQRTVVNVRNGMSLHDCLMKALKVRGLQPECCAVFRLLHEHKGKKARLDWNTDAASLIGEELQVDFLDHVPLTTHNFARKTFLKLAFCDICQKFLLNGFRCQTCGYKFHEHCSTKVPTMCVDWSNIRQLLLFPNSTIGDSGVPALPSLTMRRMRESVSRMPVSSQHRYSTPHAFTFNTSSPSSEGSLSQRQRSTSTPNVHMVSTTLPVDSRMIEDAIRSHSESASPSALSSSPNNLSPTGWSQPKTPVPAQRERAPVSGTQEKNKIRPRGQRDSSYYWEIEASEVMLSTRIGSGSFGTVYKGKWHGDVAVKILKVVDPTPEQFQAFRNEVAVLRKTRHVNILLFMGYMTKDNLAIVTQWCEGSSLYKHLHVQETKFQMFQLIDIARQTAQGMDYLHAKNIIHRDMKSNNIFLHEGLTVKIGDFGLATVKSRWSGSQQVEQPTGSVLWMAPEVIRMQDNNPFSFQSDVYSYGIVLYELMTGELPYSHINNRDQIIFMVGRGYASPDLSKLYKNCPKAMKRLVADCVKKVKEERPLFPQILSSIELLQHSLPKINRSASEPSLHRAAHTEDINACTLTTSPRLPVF
Sequence of Tyrosine-protein kinase Blk (Homo sapiens) (P51451 2-505 limits assumed): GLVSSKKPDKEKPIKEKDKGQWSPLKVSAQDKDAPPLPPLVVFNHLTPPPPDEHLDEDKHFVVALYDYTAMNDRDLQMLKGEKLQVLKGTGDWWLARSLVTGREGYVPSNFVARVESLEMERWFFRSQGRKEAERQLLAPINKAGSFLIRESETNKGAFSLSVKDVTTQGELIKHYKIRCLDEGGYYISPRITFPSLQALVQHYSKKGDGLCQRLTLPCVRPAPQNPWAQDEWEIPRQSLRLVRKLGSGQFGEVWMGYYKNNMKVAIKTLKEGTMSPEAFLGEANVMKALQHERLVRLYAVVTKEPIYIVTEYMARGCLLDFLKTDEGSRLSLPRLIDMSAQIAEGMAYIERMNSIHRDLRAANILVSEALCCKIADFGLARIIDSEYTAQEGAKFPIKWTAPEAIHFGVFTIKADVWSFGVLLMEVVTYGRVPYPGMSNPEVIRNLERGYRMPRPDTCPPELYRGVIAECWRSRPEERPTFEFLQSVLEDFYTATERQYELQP
Sequence of Serine/threonine-protein kinase PAK 2 (Homo sapiens) (Q13177 whole entry): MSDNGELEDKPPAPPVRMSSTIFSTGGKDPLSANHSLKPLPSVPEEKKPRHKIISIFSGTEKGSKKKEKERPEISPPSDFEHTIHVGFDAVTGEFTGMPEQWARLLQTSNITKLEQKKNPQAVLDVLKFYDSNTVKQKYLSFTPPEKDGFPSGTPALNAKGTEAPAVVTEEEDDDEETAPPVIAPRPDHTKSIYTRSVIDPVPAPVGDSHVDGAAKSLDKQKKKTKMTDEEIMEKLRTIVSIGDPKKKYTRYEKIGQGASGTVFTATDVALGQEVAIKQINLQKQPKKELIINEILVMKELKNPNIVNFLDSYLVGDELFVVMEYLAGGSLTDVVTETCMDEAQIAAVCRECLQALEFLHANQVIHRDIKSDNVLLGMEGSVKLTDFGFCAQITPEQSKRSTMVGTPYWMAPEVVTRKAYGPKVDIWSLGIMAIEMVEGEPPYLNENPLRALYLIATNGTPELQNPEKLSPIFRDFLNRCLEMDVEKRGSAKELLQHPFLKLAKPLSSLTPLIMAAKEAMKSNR
Sequence of Tyrosine-protein kinase Fyn (Homo sapiens) (P06241 2-537 limits assumed): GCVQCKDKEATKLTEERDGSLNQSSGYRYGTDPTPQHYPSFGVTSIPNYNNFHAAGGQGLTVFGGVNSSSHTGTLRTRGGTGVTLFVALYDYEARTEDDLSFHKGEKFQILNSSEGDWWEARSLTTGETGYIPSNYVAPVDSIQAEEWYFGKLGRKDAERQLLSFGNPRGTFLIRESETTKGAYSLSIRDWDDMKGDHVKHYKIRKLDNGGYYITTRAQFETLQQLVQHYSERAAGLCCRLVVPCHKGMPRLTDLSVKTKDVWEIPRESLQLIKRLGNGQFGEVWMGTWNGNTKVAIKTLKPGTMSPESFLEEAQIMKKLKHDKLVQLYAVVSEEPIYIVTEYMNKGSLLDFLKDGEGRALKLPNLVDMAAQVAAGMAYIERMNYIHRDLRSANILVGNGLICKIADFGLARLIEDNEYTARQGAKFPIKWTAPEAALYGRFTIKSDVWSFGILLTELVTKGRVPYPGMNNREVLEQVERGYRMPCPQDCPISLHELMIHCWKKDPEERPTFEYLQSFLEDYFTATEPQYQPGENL
Sequence of Cyclin-dependent kinase 1 (Homo sapiens) (P06493 whole entry, looked up): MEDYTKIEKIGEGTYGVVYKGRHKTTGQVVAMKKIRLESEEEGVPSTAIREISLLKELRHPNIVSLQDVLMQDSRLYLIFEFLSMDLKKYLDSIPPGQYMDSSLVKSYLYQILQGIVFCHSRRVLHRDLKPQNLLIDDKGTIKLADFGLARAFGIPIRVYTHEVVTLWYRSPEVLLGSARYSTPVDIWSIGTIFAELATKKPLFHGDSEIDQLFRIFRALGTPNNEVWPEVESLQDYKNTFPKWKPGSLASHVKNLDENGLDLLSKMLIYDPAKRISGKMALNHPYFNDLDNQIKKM
Sequence of Rho-associated protein kinase 2 (Homo sapiens) (O75116 whole entry, looked up): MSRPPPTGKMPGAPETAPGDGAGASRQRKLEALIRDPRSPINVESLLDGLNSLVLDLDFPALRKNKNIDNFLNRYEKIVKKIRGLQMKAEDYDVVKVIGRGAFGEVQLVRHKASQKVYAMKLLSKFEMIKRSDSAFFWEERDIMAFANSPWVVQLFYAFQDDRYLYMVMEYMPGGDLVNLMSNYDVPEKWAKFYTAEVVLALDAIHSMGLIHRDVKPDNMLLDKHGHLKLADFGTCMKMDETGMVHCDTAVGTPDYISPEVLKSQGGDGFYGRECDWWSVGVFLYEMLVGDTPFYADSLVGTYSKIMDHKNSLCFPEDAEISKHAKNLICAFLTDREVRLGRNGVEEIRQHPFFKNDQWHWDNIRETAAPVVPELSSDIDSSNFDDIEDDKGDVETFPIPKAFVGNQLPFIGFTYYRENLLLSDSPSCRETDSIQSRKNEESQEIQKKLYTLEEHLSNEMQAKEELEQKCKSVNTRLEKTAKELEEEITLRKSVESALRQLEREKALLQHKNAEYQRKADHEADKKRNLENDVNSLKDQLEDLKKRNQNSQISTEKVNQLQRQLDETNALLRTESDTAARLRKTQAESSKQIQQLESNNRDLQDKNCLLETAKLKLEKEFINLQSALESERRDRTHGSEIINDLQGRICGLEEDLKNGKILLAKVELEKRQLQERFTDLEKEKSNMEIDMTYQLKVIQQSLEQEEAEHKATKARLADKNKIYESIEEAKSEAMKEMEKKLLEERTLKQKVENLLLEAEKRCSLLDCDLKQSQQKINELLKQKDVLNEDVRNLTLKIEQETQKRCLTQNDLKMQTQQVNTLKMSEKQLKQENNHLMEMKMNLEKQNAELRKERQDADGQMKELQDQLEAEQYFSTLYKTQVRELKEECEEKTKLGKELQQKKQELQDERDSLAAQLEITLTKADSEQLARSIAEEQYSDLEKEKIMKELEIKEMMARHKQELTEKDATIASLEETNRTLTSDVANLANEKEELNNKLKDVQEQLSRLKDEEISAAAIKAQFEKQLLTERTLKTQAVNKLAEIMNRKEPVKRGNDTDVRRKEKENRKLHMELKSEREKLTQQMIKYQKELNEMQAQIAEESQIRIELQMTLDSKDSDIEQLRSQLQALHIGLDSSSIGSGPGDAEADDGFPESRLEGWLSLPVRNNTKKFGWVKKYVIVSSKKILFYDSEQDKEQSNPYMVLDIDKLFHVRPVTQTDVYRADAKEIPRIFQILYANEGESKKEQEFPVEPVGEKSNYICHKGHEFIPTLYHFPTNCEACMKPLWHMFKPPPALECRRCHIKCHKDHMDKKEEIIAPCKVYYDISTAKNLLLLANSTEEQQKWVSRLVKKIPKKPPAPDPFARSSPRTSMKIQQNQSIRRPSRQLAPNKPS

Question: Which Cmax [1] does the source give for `O=c1ncn2nc(Sc3ccc(F)cc3F)ccc2c1-c1c(Cl)cccc1Cl` [NEFLAMAPIMOD] here?
Answer: Its Cmax is 890 ng/mL.

Question: What about the Cmax [2] of the same compound?
Answer: The Cmax was 7850 ng/mL.

Question: What about the inhibition [3] of the same compound?
Answer: The inhibition was 84%.

Question: And the pIC50 [4]?
Answer: The pIC50 was less than 5.30.

Question: What about the pIC50 [5] of the same compound?
Answer: The pIC50 was less than 5.30.

Question: And the inhibition [6]?
Answer: The inhibition was 0%.

Question: What about the Activity (PBMC) of the same compound?
Answer: Its Activity is “Non-toxic”.

Question: And the inhibition [7]?
Answer: The inhibition was 0%.

Question: What about the half-life [8] of the same compound?
Answer: Its half-life is 4.5 h.

Question: And the inhibition [9]?
Answer: Its inhibition is 12%.

Question: And the AUC (Canis familiaris)?
Answer: Its AUC is 4340 ng·h/mL.

Question: What about the inhibition in vivo at 10 mg/kg (Mus musculus [10]) of the same compound?
Answer: Its inhibition in vivo at 10 mg/kg is 44%.

Question: What about the pIC50 (Cytochrome P450 3A4) of the same compound?
Answer: The pIC50 was less than 4.40.

Question: And the inhibition in vivo at […] (Mus musculus [11])?
Answer: Its inhibition in vivo at […] is 35%.

Question: What about the inhibition [12] of the same compound?
Answer: The inhibition was 7%.

Question: And the inhibition [13]?
Answer: Its inhibition is “inactive”.

Question: And the Vd [14]?
Answer: The Vd was 2.2 L/kg.

Question: And the Vd [15]?
Answer: Its Vd is 3.9 L/kg.

Question: What about the inhibition [16] of the same compound?
Answer: The inhibition was 6%.

Question: And the inhibition [17]?
Answer: Its inhibition is 0%.

Question: And the inhibition [18]?
Answer: Its inhibition is 16%.

Question: And the inhibition [19]?
Answer: Its inhibition is 0%.

Question: And the inhibition [20]?
Answer: The inhibition was 95%.

Question: What about the inhibition [21] of the same compound?
Answer: Its inhibition is 0%.

Question: What about the inhibition [22] of the same compound?
Answer: Its inhibition is 8%.

Question: And the inhibition in vivo at 10 mg/kg (Mus musculus [23])?
Answer: The inhibition in vivo at 10 mg/kg was 39%.

Question: And the pIC50 (Cytochrome P450 2D6)?
Answer: Its pIC50 is less than 4.40.

— ChEMBL document CHEMBL2021894, “The Discovery of VX-745: A Novel and Selective p38α Kinase Inhibitor” (ACS Med Chem Lett, 2011)
